Measurements from ChEMBL document CHEMBL1135706, “Design and synthesis of motilin antagonists derived from the [1-4] fragment of porcine motilin” (J Med Chem, 2002).
“And” between values parts separate entries of the source, which are not always exact repeats. Identical values can stand only once. Bridge positions count the residues as written; N and C are the ends. Square brackets hold non-standard residues; d marks the D form. Peptide text beside a SMILES is read from it. * marks the point of attachment. Tyr(3-tBu) = CC(C)(C)c1cc(C[C@H](N)C(=O)O)ccc1O; Ahx = NCCCCCC(=O)O; GABA = NCCCC(=O)O; βAla = NCCC(=O)O; tBu = CC(C)(C)*

Legend:
[1] = species on record: Oryctolagus cuniculus; test: Concentration of compound causing 50% inhibition of the smooth muscle contractile activity; type: functional, organism-based; conditions: Muscle tissue
[2] = biological target: Motilin receptor (Oryctolagus cuniculus, UniProt A5A4K8); test: Inhibition of the motilin receptor (MTL-R)
Motilin receptor, sequence (A5A4K8 whole entry): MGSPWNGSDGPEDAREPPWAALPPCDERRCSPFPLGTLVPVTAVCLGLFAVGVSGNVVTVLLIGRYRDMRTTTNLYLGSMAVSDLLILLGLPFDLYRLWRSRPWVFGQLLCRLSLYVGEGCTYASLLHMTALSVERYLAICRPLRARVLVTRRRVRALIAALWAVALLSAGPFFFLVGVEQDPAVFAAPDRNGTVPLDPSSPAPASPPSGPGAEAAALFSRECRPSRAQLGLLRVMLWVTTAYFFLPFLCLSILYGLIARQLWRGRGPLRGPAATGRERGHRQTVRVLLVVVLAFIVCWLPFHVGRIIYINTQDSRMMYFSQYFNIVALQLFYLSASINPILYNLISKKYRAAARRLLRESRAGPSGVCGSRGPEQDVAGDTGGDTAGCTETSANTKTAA

[3] = species on record: Oryctolagus cuniculus; test: pA2 (Contractile potency) is the negative logarithm of the molar concentration of antagonist causing a 2-fold shift to the right of the concentration response curve for motilin; type: functional, organism-based; conditions: read-out: pA2 (converted)

`CC(C)(C)c1cc(C[C@@H]2NC(=O)[C@@H](NC(=O)[C@@H](N)Cc3ccccc3)CCCCNC(=O)CCNC2=O)cc(C(C)(C)C)c1O` was tested, and the EC50 [1] was > 10000 nM and the IC50 [2] was 460 nM.

In the case of `CC(C)(C)c1cc(C[C@@H]2NC(=O)[C@@H](NC(=O)C(N)Cc3ccccc3)CCCCNC(=O)CCNC2=O)ccc1O` (single isomer, unassigned), the EC50 [1] is reported as > 100000 nM, the Kb [3] is reported as 2000 nM and the IC50 [2] is reported as 1800 nM.

`CCC(C)Oc1ccc(C[C@@H]2NC(=O)[C@@H](NC(=O)[C@@H](N)Cc3ccccc3)CCCCNC(=O)CCNC2=O)cc1` (stereo not given in full) was tested, and the IC50 [2] was 480 nM.

In the case of `CC(C)(C)Oc1ccc(C[C@@H]2NC(=O)[C@@H](NC(=O)[C@@H](N)Cc3ccccc3)CCCCNC(=O)CCNC2=O)cc1` (H-FKY(tBu)[βAla]; lactam 2-C), the EC50 [1] is reported as > 100000 nM, the Kb [3] is reported as 120000 nM and the IC50 [2] is reported as 7500 nM.

`CC(C)(C)c1cc(C[C@@H]2NC(=O)[C@@H](NC(=O)[C@@H](N)Cc3ccccc3)CCCCNC(=O)CCNC2=O)ccc1O` was tested, and the EC50 [1] was > 100000 nM, the Kb [3] was 42.7 nM and the IC50 [2] was 10 nM.

In the case of `CC(C)(C)c1cc(CC2NC(=O)[C@@H](NC(=O)C(N)Cc3ccccc3)CCCCNC(=O)CCNC2=O)ccc1O` (stereo not given in full), the EC50 [1] is reported as > 100000 nM, the Kb [3] is reported as 2190 nM and the IC50 [2] is reported as 2100 nM.

For `N[C@@H](Cc1ccccc1)C(=O)N[C@H]1CCCCNC(=O)CCNC(=O)[C@H](Cc2ccc(O)cc2)NC1=O` (H-FKY[βAla]; lactam 2-C), the EC50 [1] was > 100000 nM, the Kb [3] was 89100 nM and the IC50 [2] was 25000 nM and 42000 nM.

With `CC(C)(C)c1cc(C[C@H]2NC(=O)[C@@H](NC(=O)[C@@H](N)Cc3ccccc3)CCCCNC(=O)CCNC2=O)ccc1O` the EC50 [1] was > 100000 nM, the Kb [3] was 5370 nM and the IC50 [2] was 3100 nM.

In the case of `CC(C)(C)c1cc(C[C@@H]2NC(=O)[C@@H](NC(=O)[C@@H](N)Cc3ccccc3)CCCCNC(=O)CCCNC2=O)ccc1O` (H-FK[Tyr(3-tBu)][GABA]; lactam 2-C), the EC50 [1] is reported as > 100000 nM, the Kb [3] is reported as 34.7 nM and the IC50 [2] is reported as 33 nM and 59 nM.

With `CC(C)(C)c1cc(C[C@@H]2NC(=O)[C@@H](NC(=O)[C@@H](N)Cc3ccccc3)CCCCNC(=O)CNC2=O)ccc1O` (H-FK[Tyr(3-tBu)]G; lactam 2-C) the EC50 [1] was > 100000 nM, the Kb [3] was 46.8 nM and the IC50 [2] was 7 nM and 33 nM.

With `CC(C)(C)c1cc(C[C@@H]2NC(=O)[C@@H](NC(=O)[C@@H](N)Cc3ccccc3)CCCCNC(=O)CCCCCNC2=O)ccc1O` (H-FK[Tyr(3-tBu)][Ahx]; lactam 2-C) the EC50 [1] was > 100000 nM, the Kb [3] was 83.2 nM and the IC50 [2] was 17 nM and 65 nM.
